Measured values reported in the NIST ThermoML archive (doi:10.1016/j.fluid.2016.01.011).
Numbers after ± are expanded uncertainties.

Experiments:
[1] = Crystal; DTA
[2] = Molar enthalpy of transition or fusion; conditions: Crystal; DSC

Row | SMILES | Normal melting temperature [1] | Molar enthalpy of transition or fusion [2]
1 | CCCCC/C=C\C/C=C\CCCCCCCC(=O)O [(Z,Z)-9,12-octadecadienoic acid] | -4.91 ± 0.58 °C | 8.15 ± 0.215 kcal/mol
2 | CCCCCCCCCCCCCCCCCC(=O)O [octadecanoic acid] | 70.83 ± 0.61 °C | 15.4 ± 0.55 kcal/mol
3 | CCCCCCCCCCCCCC(=O)O [tetradecanoic acid] | 54.53 ± 0.84 °C | 10.7 ± 0.406 kcal/mol
